From US5177251A, “Halogenated tetraenyl prostaglandin derivatives” (G. D. Searle & Co., priority 1991, dated 1993)

What was measured:
[1] = system: ethanol-induced gastric lesions; test: Ethanol induced gastric lesion assay in rats (cytoprotective); type: in vivo, male Charles River rats; conditions: rat, oral, 30 minutes before absolute ethanol; read-out: Ethanol-Induced Gastric Lesion *MED (Minimal effective dose)
Description: In the assay, 0.005-0.5 mg/kg is orally administered to adult 180-220 gram male Charles River rats which have been deprived of food for 24 hours. Thirty minutes later, 1.0 ml of absolute ethanol is administered intragastrically. The rats are sacrificed 60 minutes after alcohol administration and the gastric mucosa are visually examined for the presence of lesions. The number and severity of lesions are scored. A compound is judged active at the concentration evaluated if it provides a statistically significant reduction in the number and/or severity of lesions compared to the control group.

gastric acid secretion = test: Gastric acid secretion assay in dogs (Pavlov gastric pouch, meal-stimulated); type: in vivo, dog (adult female beagles); conditions: into gastric pouch; for ED50: Canis lupus familiaris, dog, total acid output over 4 hours after feeding, read-out: Gastric Antisecretory (Dog) ED50; for Gastric Antisecretory (Dog), % inhibition at 0.3: at 0.3 (column unit μg/kg)
Description: The standard test used to detect gastric antisecretory activity is described as follows.
Adult female beagles, 6-11 kg body weight, were surgically prepared with innervated (Pavlov) gastric pouches that were drained by Thomas-type gastric cannulae. Following surgical recovery, each dog was trained to stand quietly in a dog restraining sling and was conscious for all studies. Experiments began at least 3 weeks after surgery, and no dog was used more than once per week.
Dogs were food-deprived with access to water for 24 hours prior to experiments. Following a 30 minute basal collection period, the prostaglandins or vehicle were administered into the gastric pouch in a 2-3 ml volume. Thirty minutes later the gastric pouch was emptied and gastric secretion was stimulated by feeding 10-12 oz of dog food (Fromm All Beef, Federal Foods Inc., Thiensville, Wis.). Gastric juice samples were collected from the pouch by gravity drainage over a 4 hour period at 30 minute intervals. The volume of secretion was measured (ml/30 min), and the acidity (mequiv/L) was determined by electrometric titration to pH 7.0 with 0.1 N NaOH. These two parameters were multiplied to obtain the total acid output (mequiv/30 minutes) for each collection period.
Percent reduction of total acid output from control was calculated over each 4 hour experiment for doses of prostaglandin. ED50 values and 95% confidence limits were determined from inhibition of secretion curves.

diarrhea = test: Diarrheal assay in rats; type: in vivo, male Charles River rats; conditions: intragastric, up to 8 hours
Description: (§1) Diarrhea is an undesirable side effect commonly associated with antisecretory and cytoprotective prostaglandins. […] Groups of 6 adult male Charles River rats weight rang®180 to 200 g, are fasted for 24 hours prior to administering the test substance. The prostaglandin to be tested is administered intragastrically in iso-osmotic phosphate buffer at a volume of 10 ml/kg at doses ranging from 100 to 3000 μg/kg. Control animals receive only the vehicle. The rats are placed in individual wire mesh cages and t he trays lined with brown paper. Diarrhea is assessed at hourly intervals on all or none basis for up to 8 hours after administration of the prostaglandin. Diarrhea is defined as any loose or watery stool. ED50 values are assessed for each hourly diarrheagenic response.

Diarrheal assay in rats = type: in vivo, male Charles River rats; conditions: in vivo, po; rat, intragastric, up to 8 hours; read-out: Diarrhea Rat ED50
Description: as §1

[2] = Acid stability in acetic acid:THF:water, thin layer chromatography; type: physicochemical; conditions: 3:1:1 acetic acid:THF:water, room temperature, TLC, all time points
Description: Comparison of Acid Stability of Compound of Example 1 with its parent non-fluorinated analog.
Each compound (4 mg) was separately dissolved in 0.4 ml of a 3:1:1 solution of acetic acid:THF:water and kept at room temperature. Relative decomposition was assessed by thin layer chromatography analysis of aliquots withdrawn at 30 minutes, 1,2, 4 and 6 hours.

SMILES	minimal effective dose [1] [mg/kg]	ED50 (gastric acid secretion) [µg/kg]	Gastric Antisecretory (Dog), % inhibition at 0.3 (gastric acid secretion) [%]	Diarrhea Rat ED50 (diarrhea) [μ/kg]	TD50 at 8 h (Diarrheal assay in rats) [mg/kg]	decomposition at 30 minutes, 1, 2, 4 and 6 hours [2]
COC(=O)CC/C=C\CC[C@H]1C(=O)C[C@@H](O)[C@@H]1/C=C/C[C@@](O)(/C=C/C1=CCCC1)CCl (relative stereo) [Example 5, (±)-methyl 7-[2β-[4R-(chloromethyl)-6-(1-cyclopenten-1-yl)-4-hydroxy-1E, 5E-hexadienyl]-3α-hydroxy-5-oxo-1α-cyclopentyl]-4Z-heptenoate]	0.01	> 0.1	–	–	–	–
COC(=O)CC/C=C\CC[C@H]1C(=O)C[C@@H](O)[C@@H]1/C=C/C[C@@](C)(O)/C=C/C=C/C(F)(F)F (relative stereo) [Example 6, (±)-methyl 11α,16R-dihydroxy-16-methyl-9-oxo-20-(trifluoromethyl) prosta-4Z,13E,17E,19E-tetraen-1-oate]	–	–	84	–	–	–
COC(=O)CC/C=C\CC[C@H]1C(=O)C[C@@H](O)[C@@H]1/C=C/C[C@@](O)(/C=C/C=C(C)C)CF (relative stereo) [Example 10, methyl 16R-(fluoromethyl)-11α,16-dihydroxy-20,20-dimethyl-9-oxoprosta-4Z,13E,17E,19-tetraen-1-oate]	0.025	< 0.3	–	> 3160	–	–
COC(=O)CC/C=C\CC[C@H]1C(=O)C[C@@H](O)[C@@H]1/C=C/C[C@@](O)(/C=C/C1=CCCC1)C(F)(F)F (relative stereo) [Example 4, (±)-methyl 7-[2β-[6-(1-cyclopenten-1yl)-4R-hydroxy-4-(trifluoromethyl)-1E,5E-hexadienyl]-3α-hydroxy-5-oxo-1α-cyclopentyl]-4Z-heptenoate]	0.1	> 0.1	–	> 3160	–	–
COC(=O)CC/C=C\CC[C@H]1C(=O)C[C@@H](O)[C@@H]1/C=C/C[C@@](C)(O)/C=C/C=C(Cl)Cl (relative stereo) [Example 9, (±)-methyl 20,20-dichloro-11α,16R-dihydroxy-16-methyl-9-oxoprosta-4Z,13E,17E,19-tetraen-1-oate]	0.0025	–	–	–	1	–
COC(=O)CC/C=C\CC[C@H]1C(=O)C[C@@H](O)[C@@H]1/C=C/C[C@@](O)(/C=C/C1=CCCC1)CF (relative stereo) [Example 1, (±)-methyl 7-[2β-[6-(1-cyclopenten-1-yl)-4R-(fluoromethyl)-4-hydroxy-1E,5E-hexadienyl]-3α-hydroxy-5-oxo-lo-cyclopentyl]-4Z-heptenoate]	0.001	–	–	> 3160	–	virtually no decomposition products were observed
COC(=O)CC/C=C\CC[C@H]1C(=O)C[C@@H](O)[C@@H]1/C=C/C[C@@](O)(/C=C/C1=CCCC1)CF [Example 2, methyl 7-[2β-[6-(1-cyclopenten-1-yl)-4R-(fluoromethyl)-4-hydroxy-1E,5E-hexadienyl]-3α-hydroxy-5-oxo-1R,1α-cyclopentyl]-4Z-heptenoate]	0.001	–	–	> 3160	–	–
COC(=O)CC/C=C\CC[C@H]1C(=O)C[C@@H](O)[C@@H]1/C=C/C[C@@](C)(O)/C=C/C(F)=C(C)C (relative stereo) [Example 8, (±)-methyl 19-fluoro-11α,16R-dihydroxy-16,20,20-trimethyl-9-oxoprosta-4Z,13E,17E, 19-tetraen-1-oate]	0.001	–	–	–	–	–
COC(=O)CC/C=C\CC[C@H]1C(=O)C[C@@H](O)[C@@H]1/C=C/C[C@@](C)(O)/C=C/C=C(\C)C(F)(F)F (relative stereo) [Example 7, (±)-methyl 11α,16R-dihydroxy-16,20-dimethyl-9-oxo-20-(trifluoromethyl) prosta-4Z,13E,17E, 19E-tetraen-1-oate]	0.05	–	74	–	–	–
COC(=O)CC/C=C\CC[C@H]1C(=O)C[C@@H](O)[C@@H]1/C=C/C[C@@](O)(/C=C/C1=CCCC1)C(F)F (relative stereo) [Example 3, (±)-methyl 7-[2β-[6-(1-cyclopenten-1-yl)-4R-(difluoromethyl)-4-hydroxy-1E,5E-hexadienyl]-3α-hydroxy-5-oxo-1α-cyclopentyl]-4Z-heptenoate]	0.01	> 1	–	> 3160	–	–
